Results reported in patent US8148392B2, “2-indolyl imidazo [4,5-d] phenanthroline derivatives and their use in the treatment of cancer” (Lorus Therapeutics Inc., priority 2005, dated 2012).
Entries after “also recorded” stand apart in the source; their conditions may differ.

What was measured:
Type in all cases: cell-based, human
[1] = system: HT-29 cells; test: Effect of exogenous metals on growth inhibition of HT-29 cells (XTT); conditions: HT-29, 5 days; for effect of exogenous zinc on growth inhibition: ZnCl2 (100 μM)
Method: To determine whether metal chelation is involved in the growth inhibitory activity of compounds of Formula I, exogenous metals (ZnCl2, FeCl2.4H2O, FeCl3.4H2O, MgCl2, at 100 μM) were incubated with HT-29 cells, simultaneously with control vehicle DMSO, compound 3 (5 μM), or compound 13 (25 μM), for 5 days. […] Growth inhibition by compound 13 is predicted to occur through a different mechanism than compound 3.
To determine whether chelation of copper is involved in the growth inhibitory activity of compounds of Formula I, HT-29 cells were incubated with up to 5 μM of compound 3, in the presence or absence of 25 μM CuSO4.5H20 for 5 days.
To determine whether metal chelation is involved in the growth inhibitory activity of compound 3, various concentrations of exogenous metals were incubated with HT-29 cells, simultaneously with various concentrations of compound 3, for 5 days. The exogenous metals tested were: ZnCl2 (zinc), CuSO4.5H20 (copper), FeCl2 (iron II), FeCl3.4H20 (iron III), MgCl2 (magnesium), and CaCl2.2H20 (calcium). HT-29 cells (4×10^3/well) in 100 μL volume of the growth medium were seeded in 96-well cell culture plates and incubated overnight at 37° C. The medium was removed and replaced with a total volume of 100 μl growth medium containing concentrations of metal ions as shown in FIG. 5 with compound 3 or 0.1% DMSO vehicle control. After incubation of the cells at 37° C. for 5 days, cell viability was quantitated using the XTT (sodium 3′-[1-(phenylamino-carbonyl)-3,4-tetrazolium}-bis (4-methoxy-6-nitro) benzene sulfonic acid hydrate) calorimetric assay (Roche Applied Science, Penzberg, Germany). XTT labeling reagent (1 mg/mL) was mixed with electron-coupling reagent, following the manufacturer's instructions, and 50 μl of the mixture was added directly to the cells cultured in 100 μl growth medium. The plates were further incubated at 37° C. for 4 hours and the absorbance of each well was measured by a multi-well spectrophotometer (Bio-Tek Instruments Inc.) at 460 nm. The data were adjusted relative to the blank, and were expressed as % of cell growth compared to the DMSO control.
To determine the ability of compounds 5 and 7 to chelate metals in cells, exogenous metals were added to HT-29 cells, simultaneously with various concentrations of compounds 5 and 7. Briefly, HT-29 cells were treated with various concentrations compounds 5 and 7, plus or minus copper (25 μM CuSO4.5H20) or zinc (100 μM of ZnCl2), for 5 days. Cell viability was determined by XTT assay. The effects of copper and zinc on growth inhibition of HT-29 cells are shown in FIG. 6A for compound 5 and in FIG. 6B for compound 7.
Effect of metal ion supplements on compound 3-mediated cell growth inhibition of HT-29 cells was examined by XTT cell proliferation assay.

[2] = system: MDA-MB-231 breast cancer cells; test: XTT cell proliferation assay, MDA-MB-231; conditions: Homo sapiens, read-out: IC50 (cell growth inhibition)
Method: Cell growth inhibition IC50 (μM) by compounds of Formula I was tested on various cancer cell types by XTT cell proliferation assay. The growth inhibitory effects of the compounds of Formula I as shown below for the melanoma cell line SK-MEL-2 were reproducible by Lorus Therapeutics Inc.

[3] = system: HT-29 cells; test: Cell cycle analysis by flow cytometry, HT-29; conditions: HT-29, 24 hours
Method: To test the ability of compounds of Formula I to block cell cycle progression, compound 3 was incubated with human colon carcinoma HT-29 or human leukemia CCRF-CEM cells to determine alterations in populations of cells at different stages of the cell cycle using flow cytometric analysis. HT-29 cells were maintained as described in Example 13. CCRF-CEM cells used in this example and subsequent examples were maintained as suspension cells in a growth medium; RPMI-1640 medium (Sigma, St. Louis, Mo.), supplemented with 2 mM L-glutamine (Gibco, Grand Island, N.Y.), 10% fetal bovine serum (FBS) (Multicell, WISENT Inc. St-Bruno, QC), antibiotic-antimycotic (Multicell), at 37° C. in a 5% CO2-humidified incubator.
The assay was carried out as follows. For HT-29 cells, 1×10^6 cells in 10 mL volume of the growth medium were seeded in 100 mm dishes. For CCRF-CEM cells, 3×10^6 cells in 10 mL volume of the growth medium were seeded in 25 cm^2 flask. […] The fluorescence of stained cells was analyzed using FACScan flow cytometer and the Cell Quest program (BD Biosciences, San Jose, Calif.). Data were evaluated using Modfit software (Verity software House, Topsham, Me.). Values were determined by gate analysis of flow cytometric plots. […]
Cell cycle analysis was assessed by flow cytometry in HT-29 cells treated with compound 3 as shown in FIG. 27A and compound 7 as shown in FIG. 27B.

[4] = 25 μM CuSO4, low concentrations of compound (less than 2 μM)

| SMILES | effect of iron(III), magnesium and calcium on growth inhibition [1] | effect of exogenous copper on growth inhibition ([1]; 25 μM CuSO4, high concentrations of compound (>2.5 μM)) | effect of exogenous copper on growth inhibition [1, 4] | effect of exogenous zinc on growth inhibition [1] | effect of excess iron and magnesium on growth inhibition ([1]; metals at 100 μM, compound 3 5 μM) | IC50 [2] | cell cycle progression [3] |
| --- | --- | --- | --- | --- | --- | --- | --- |
| Cc1[nH]c2ccccc2c1-c1nc2c3cccnc3c3ncccc3c2[nH]1 [Compound 3] | essentially no effect | significantly enhanced the activity | Copper impaired the growth inhibitory activities | completely impaired; also recorded: impaired the growth inhibitory activities; also recorded: completely reversed by zinc only | no effect | 5 µM | induced a block in cell cycle progression at the G1 phase; also recorded: Cell cycle arrest at G1/S phase was observed |
| Cc1[nH]c2ccc(F)cc2c1-c1nc2c3cccnc3c3ncccc3c2[nH]1 [Compound 7] |  |  | copper impaired the activity only at low concentrations | zinc impaired the growth inhibitory activities |  | 5 µM | Cell cycle arrest at G1/S phase was observed |
